From PMC7044277 (Nature Communications, 2020)
Several values for one entry are separate records, joined by “and”; a condition that tells them apart may be missing. Identical values can stand only once. One block for each compound: values may come before it.

Experiments:
[1] = biological target: DRD2 (D2 long receptor) wild-type (Homo sapiens, UniProt P14416); test: Radioligand competition binding, [3H]-N-methylspiperone, HEK293T membranes; conditions: DRD2; [3H]-methylspiperone (0.8-1.0 nM); read-out: Ki
DRD3 wild-type = DRD3 wild-type (Homo sapiens, UniProt P35462); test: Radioligand competition binding, [3H]-N-methylspiperone; conditions: DRD3 wild-type; read-out: pKi ± SEM (converted)
[2] = biological target: T1, DRD4 (D4.4 variant) wild-type (Homo sapiens, UniProt P21917); test: as above; conditions: DRD4; [3H]-methylspiperone (0.8-1.0 nM); read-out: Ki
T1 sequence (P21917 1-419): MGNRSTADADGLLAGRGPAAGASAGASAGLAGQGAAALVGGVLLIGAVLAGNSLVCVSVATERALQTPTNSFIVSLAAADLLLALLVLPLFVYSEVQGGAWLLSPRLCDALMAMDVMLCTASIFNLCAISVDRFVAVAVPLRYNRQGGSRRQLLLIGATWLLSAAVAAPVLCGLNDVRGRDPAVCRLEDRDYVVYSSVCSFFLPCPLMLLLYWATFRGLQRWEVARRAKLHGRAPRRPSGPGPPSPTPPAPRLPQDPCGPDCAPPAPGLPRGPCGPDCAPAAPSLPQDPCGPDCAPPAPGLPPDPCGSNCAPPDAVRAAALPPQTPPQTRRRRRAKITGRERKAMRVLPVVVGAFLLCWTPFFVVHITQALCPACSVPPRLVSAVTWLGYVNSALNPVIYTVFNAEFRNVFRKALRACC

DRD2 (D2 long receptor) = DRD2 (D2 long receptor) (Homo sapiens, UniProt P14416); test: Gαi/o-mediated cAMP inhibition (GloSensor split-luciferase cAMP reporter), HEK293T; type: cell-based; conditions: DRD2; antagonist, Gαi/o-mediated cAMP inhibition; read-out: EC50 ± SEM (antagonist);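 also: compounds applied 15 min at room temperature, then luciferin plus 400 nM isoproterenol to raise cAMP through endogenous β2-adrenergic receptors, luminescence read 15 min later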
DRD1 = DRD1 (Homo sapiens, UniProt P21728); test: β-arrestin2 recruitment (Tango); type: cell-based; conditions: agonist mode
DRD5 = DRD5 (Homo sapiens, UniProt P21918); test: β-arrestin2 recruitment (Tango); type: cell-based; conditions: Fig_S10e, single replicates
DRD5, sequence (P21918 whole entry): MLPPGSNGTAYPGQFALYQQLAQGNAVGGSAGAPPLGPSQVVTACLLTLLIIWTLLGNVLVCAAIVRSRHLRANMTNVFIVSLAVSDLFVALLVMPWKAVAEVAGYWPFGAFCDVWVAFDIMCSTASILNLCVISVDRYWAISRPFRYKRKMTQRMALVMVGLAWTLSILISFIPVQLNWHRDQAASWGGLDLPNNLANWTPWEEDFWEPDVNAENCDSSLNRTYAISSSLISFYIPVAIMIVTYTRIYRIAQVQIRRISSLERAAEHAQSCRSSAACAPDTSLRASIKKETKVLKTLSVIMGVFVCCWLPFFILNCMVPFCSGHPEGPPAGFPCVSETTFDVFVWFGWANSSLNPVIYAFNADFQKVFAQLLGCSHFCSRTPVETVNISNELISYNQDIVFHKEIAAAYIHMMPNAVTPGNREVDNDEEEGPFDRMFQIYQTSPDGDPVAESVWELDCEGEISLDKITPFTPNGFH

DRD1, sequence (P21728 whole entry): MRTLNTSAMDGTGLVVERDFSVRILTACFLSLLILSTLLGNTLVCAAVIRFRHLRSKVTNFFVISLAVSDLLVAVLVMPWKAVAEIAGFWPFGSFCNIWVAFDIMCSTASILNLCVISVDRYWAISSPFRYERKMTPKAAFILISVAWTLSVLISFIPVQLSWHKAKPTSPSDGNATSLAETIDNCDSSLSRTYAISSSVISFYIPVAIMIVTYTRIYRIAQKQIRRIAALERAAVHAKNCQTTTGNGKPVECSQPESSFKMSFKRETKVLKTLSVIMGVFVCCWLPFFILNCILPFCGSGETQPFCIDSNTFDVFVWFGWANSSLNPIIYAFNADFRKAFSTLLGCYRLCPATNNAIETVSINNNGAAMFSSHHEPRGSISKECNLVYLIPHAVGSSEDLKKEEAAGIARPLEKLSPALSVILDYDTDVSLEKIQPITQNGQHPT
DRD3 wild-type, sequence (P35462 whole entry): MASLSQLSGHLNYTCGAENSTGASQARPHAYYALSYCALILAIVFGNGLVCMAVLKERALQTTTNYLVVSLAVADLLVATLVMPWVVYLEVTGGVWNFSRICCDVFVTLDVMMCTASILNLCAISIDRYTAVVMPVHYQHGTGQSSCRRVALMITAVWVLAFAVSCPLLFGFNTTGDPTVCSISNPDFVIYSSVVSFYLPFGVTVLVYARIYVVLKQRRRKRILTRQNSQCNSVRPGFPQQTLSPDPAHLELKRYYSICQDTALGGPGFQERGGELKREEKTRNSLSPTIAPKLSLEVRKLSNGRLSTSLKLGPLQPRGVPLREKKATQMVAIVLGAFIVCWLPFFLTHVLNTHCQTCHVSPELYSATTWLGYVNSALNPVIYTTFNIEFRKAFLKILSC
DRD2 (D2 long receptor), sequence (P14416 whole entry): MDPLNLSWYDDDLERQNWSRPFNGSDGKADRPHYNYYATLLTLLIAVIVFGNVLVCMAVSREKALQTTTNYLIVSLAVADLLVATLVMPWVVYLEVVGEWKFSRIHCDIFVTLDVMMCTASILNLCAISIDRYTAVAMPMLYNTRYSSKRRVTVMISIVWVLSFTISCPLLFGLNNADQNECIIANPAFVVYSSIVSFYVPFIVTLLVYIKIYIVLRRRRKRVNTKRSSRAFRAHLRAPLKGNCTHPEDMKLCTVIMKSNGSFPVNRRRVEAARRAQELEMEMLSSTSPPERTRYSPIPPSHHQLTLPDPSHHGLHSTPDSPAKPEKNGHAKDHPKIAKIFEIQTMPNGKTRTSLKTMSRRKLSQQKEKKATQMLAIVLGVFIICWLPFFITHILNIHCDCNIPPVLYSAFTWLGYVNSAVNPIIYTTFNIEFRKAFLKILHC
DRD2 (D2 long receptor) wild-type, sequence (P14416 whole entry): as above

Ki [1]: 3.8 µM
Ki (DRD3 wild-type): 0.214 µM
Ki [2]: > 10 µM
EC50 (DRD2 (D2 long receptor)): 3.55 ± 0.295 µM
SMILES: CCCCN(C)C(C)C(=O)Nc1cc([N+](=O)[O-])ccc1OC (stereo not shown) [O9LE9]

Fig_S10d concentration-response source data, compound alone (replicates) (DRD1; Log[Drug] -6.52): 10.0073
SMILES: Oc1ccc2c(c1O)Oc1cccc3c1C2CNC3 (stereo not shown) [dinoxyline]
Fig_S10d concentration-response source data, compound alone (replicates) (DRD1; Log[Drug] -7): 4.307 and 1.205 and 1.227 and 4.484 and 2.979 and 2.557 and 2.04 and -0.1301 and 1.092
Fig_S10d concentration-response source data, compound alone (replicates) (DRD1; Log[Drug] -7.52): 1.579 and 3.303 and 0.5491 and 3.089 and 1.082 and 1.378 and -0.7612 and -0.8315 and -0.809
Fig_S10d concentration-response source data, compound alone (replicates) (DRD1; Log[Drug] -8): 1.257 and 1.231 and 1.566 and 0.913 and 0.3538 and 0.1991 and -0.676 and -1.057 and 0.2893
Fig_S10d concentration-response source data, compound alone (replicates) (DRD1; Log[Drug] -8.52): 0.2231 and 2.08 and 8.446 and 0.2359 and 0.07888 and 0.01718 and -0.4841 and -1.204 and -0.2743
Fig_S10d concentration-response source data, compound alone (replicates) (DRD1; Log[Drug] -9): 0.9179 and 0.03861 and 0.7078 and 0.082 and -0.04373 and 0.0164 and -1.424 and -1.237 and -0.4972
Fig_S10d concentration-response source data, compound alone (replicates) (DRD1; Log[Drug] -9.52): 0.9179 and 1.428 and 0.9008 and 0.3038 and -0.1367 and -0.264 and -0.706 and -1.205 and -0.04775
Fig_S10d concentration-response source data, compound alone (replicates) (DRD1; Log[Drug] -10): -0.2788 and -0.1244 and 1.737 and -0.3538 and -0.2647 and 0.1437 and -1.4279 and -0.8642 and -0.7996
Fig_S10d concentration-response source data, compound alone (replicates) (DRD1; Log[Drug] -10.52): -0.2788 and 0.2273 and 1.767 and 0.02109 and 0.9895 and -0.1132 and 0.1507 and -0.4242 and -0.1601
Fig_S10d concentration-response source data, compound alone (replicates) (DRD1; Log[Drug] -11): 0.5834 and 0.2231 and 0.5491 and -0.5092 and -0.2671 and 0.4842 and -1.071 and -0.647 and 0.1395
Fig_S10d concentration-response source data, compound alone (replicates) (DRD1; Log[Drug] -11.52): -0.1115 and 1.072 and 4.68 and 0.05545 and 0.239 and 0.3608 and 3.618 and -0.7331 and -0.985
Fig_S10d concentration-response source data, compound alone (replicates) (DRD1; Log[Drug] -12): -0.2702 and -0.1115 and 0.3903 and -0.474 and -0.4764 and -0.3218 and 3.0206 and -0.9897 and -0.8633
β-arrestin2 recruitment response, agonist mode (normalized) (DRD5; Log[Drug] -6.52): 50.9959 and 44.5818 and 81.7753 and 73.11 and 53.8362
β-arrestin2 recruitment response, agonist mode (normalized) (DRD5; Log[Drug] -7): 44.4286 and 33.2805 and 57.3924 and 47.0403 and 55.7358 and 61.3062 and 41.0525 and 43.6565
β-arrestin2 recruitment response, agonist mode (normalized) (DRD5; Log[Drug] -7.52): 33.6662 and 25.4134 and 56.8006 and 39.9881 and 23.8046 and 44.1458 and 17.6483 and 11.4811
β-arrestin2 recruitment response, agonist mode (normalized) (DRD5; Log[Drug] -8): 7.481 and 4.412 and 28.4866 and 15.182 and 15.3449 and 6.879 and 1.575 and 2.947
β-arrestin2 recruitment response, agonist mode (normalized) (DRD5; Log[Drug] -8.52): 7.423 and 8.3056 and 10.7658 and 9.092 and 10.1938 and 2.126 and 2.041 and 8.64
β-arrestin2 recruitment response, agonist mode (normalized) (DRD5; Log[Drug] -9): 0.5231 and -1.384 and 1.379 and 3.9644 and 2.988 and 7.407 and -1.292 and -1.934 and 0.3332
β-arrestin2 recruitment response, agonist mode (normalized) (DRD5; Log[Drug] -9.52): 0.9986 and 0.1427 and 0.1268 and 2.609 and 1.523 and 1.227 and -2.233 and -1.075 and -0.4405
β-arrestin2 recruitment response, agonist mode (normalized) (DRD5; Log[Drug] -10): -2.61 and -1.543 and -0.2906 and 1.406 and 1.213 and 1.593 and -1.565 and -1.034 and 0.3624
β-arrestin2 recruitment response, agonist mode (normalized) (DRD5; Log[Drug] -10.52): 3.973 and -1.363 and 0.9616 and 3.254 and 1.908 and 2.385 and -0.2872 and 0.4781 and -0.9479
β-arrestin2 recruitment response, agonist mode (normalized) (DRD5; Log[Drug] -11): -1.141 and 0.9563 and 6.05 and 0.4043 and -0.1448 and 1 and -1.291 and -1.255 and 0.5855
β-arrestin2 recruitment response, agonist mode (normalized) (DRD5; Log[Drug] -11.52): 0.7872 and 1.828 and -1.791 and 1.074 and 2.305 and 1.525 and -1.001 and -2.087 and -0.1993
β-arrestin2 recruitment response, agonist mode (normalized) (DRD5; Log[Drug] -12): -1.5322 and -0.4861 and -0.05283 and -0.02136 and -0.01028 and 2.843 and -2.166 and -0.9521 and 0.6036
